Data taken from patent US20220281930A1, “COMPOSITIONS AND METHODS FOR THE TREATMENT OF PATHOLOGICAL PAIN AND ITCH” (DUKE UNIVERSITY, priority 2019, published 2022).

How the values were obtained:
KCC2 mRNA = KCC2 mRNA RT-qPCR in microdissected spinal cord dorsal horn; format: in vivo, mouse; conditions: KP 10 mg/kg; after PSNL vs vehicle
Protocol: oligodT-initiated reverse transcription of 1 μg total RNA, DNA-se treated, was subjected to RT-qPCR using primers specific for KCC2 for rat and KCC2 for human sequences, normalized for neuronal βIII-tubulin, as previously described (Yeo et al., 2009, J Neurosci 29:14652-14662). For cultured neurons, total RNA was extracted from pelleted cells, and for spinal cord tissue it was extracted from microdissected lumbar spinal cord dorsal horn.
With the aforementioned findings and in view of the SCDH as the likely site of analgesic action of KP (Coull et al., 2003, Nature 424:938-942; Gagnon et al., 2013, Nat Med 19:1524-1528), SCDH KCC2 expression and function in nerve injury and response to KP was assessed. […] To measure KCC2 mRNA, SCDH Rexed-layers I-II were microdissected with laser capture followed by RT-qPCR. SCDH KCC2 protein expression was measured morphometrically after KCC2 immunolabeling using SCDH laminae I-II as the region-of-interest (FIG. 5B).

δ-cat S259 = test: Phosphoproteomics in rat primary cortical neurons, δ-cat; format: cell-based; conditions: 1 μM KP; after 1 h, sustained at 24 h
Protocol: Cultured rat primary cortical neurons were treated with either vehicle DMSO (0.1%) or 1 μM KP for 1 h/24 h. Cells were lysed in non-detergent-containing buffer (Tris.Cl pH8 50 mM, NaCl 150 mM, 0.5% Phosphatase Inhibitor (Pierce #88667) and Protease Inhibitor (Roche #11836153001)). 500 μL was removed and solid urea was added to a final concentration of 8M. Samples were sonicated for further solubilization. After clearing of insoluble material by centrifugation, protein concentration was measured by Bradford assay. 250 μg of total protein was removed from each sample and solubilization buffer was added to normalize all samples to 0.93 μg/μL protein. Samples were then spiked with bovine alpha-casein to 30 fmol/μg of total protein. Samples were reduced with 10 mM DTT at 32° C. for 45 min and then alkylated with 20 mM iodoacetamide at room temperature for 30 min. […]
TiO2 Enrichment. […] After cleanup using a C18 STAGE tip, and resuspension in 2% acetonitrile, 0.1% TFA, 10 mM citric acid samples were quantified.
Quantitative analysis of Phosphopeptide Enriched Samples. Quantitative LC-MS/MS was performed in singlicate (4 uL=33% of the total sample each injection) for phosphopeptide-enriched samples using a nanoAcquity UPLC system (Waters Corp) coupled to a Thermo QExactive Plus high resolution accurate mass tandem mass spectrometer (Thermo) via a nanoelectrospray ionization source. […]

O=C1Cc2c([nH]c3ccc(Br)cc23)-c2ccccc2N1 [kenpaullone, 9-bromo-7,12-dihydro-indolo [3,2-d] [1]benzazepin-6(5H)-one]
KCC2 mRNA expression in SCDH lamina-I/II (KCC2 mRNA): rescues significantly attenuated KCC2 mRNA expression
S259 phosphorylation of δ-cat (δ-cat S259): significant de-phosphorylation
